Data as given in ChEMBL document CHEMBL1146455, “New geranyl stilbenes from Dalea purpurea with in vitro opioid receptor affinity” (J Nat Prod, 2004).

Test: Displacement of [3H]naloxone from opioid receptor in Sprague-Dawley rat striatal membrane by scintillation spectrophotometry
Set-up: species or system Striatum
For `CC(C)=CCC/C(C)=C/Cc1c(O)cc(O)cc1/C=C/c1ccc(O)c(O)c1CC=C(C)C` [PAWHUSKIN A], the Ki was 0.29 µM. For `CC(C)=CCCC1(C)C=Cc2c(O)cc(/C=C/c3ccc(O)c(O)c3)cc2O1` (centres undefined) [PAWHUSKIN B], the Ki was 11.4 µM. For `CC(C)=CCC/C(C)=C/Cc1c(O)cc(/C=C/c2ccc(O)c(O)c2)cc1O` [PAWHUSKIN C], the Ki was 4.2 µM. In the case of `CC(C)=CCc1cc(O)c(O)c(CC=C(C)C)c1[C@H]1Oc2c(CC=C(C)C)c(O)cc(O)c2C(=O)[C@@H]1O` [PETALOSTEMUMOL], the Ki is reported as > 100 µM.
